We go through three compounds from patent US20190381004A1, “PHOTOPROTECTIVE COMPOSITIONS CONTAINING MALASSEZIA-DERIVED COMPOUNDS AND/OR CHEMICAL ANALOGS THEREOF” (priority 2018, published 2019).

The target of data set [1] is T1, arylhydrocarbon receptor (AhR) (Homo sapiens, UniProt P35869).
T1 sequence (P35869 11-848): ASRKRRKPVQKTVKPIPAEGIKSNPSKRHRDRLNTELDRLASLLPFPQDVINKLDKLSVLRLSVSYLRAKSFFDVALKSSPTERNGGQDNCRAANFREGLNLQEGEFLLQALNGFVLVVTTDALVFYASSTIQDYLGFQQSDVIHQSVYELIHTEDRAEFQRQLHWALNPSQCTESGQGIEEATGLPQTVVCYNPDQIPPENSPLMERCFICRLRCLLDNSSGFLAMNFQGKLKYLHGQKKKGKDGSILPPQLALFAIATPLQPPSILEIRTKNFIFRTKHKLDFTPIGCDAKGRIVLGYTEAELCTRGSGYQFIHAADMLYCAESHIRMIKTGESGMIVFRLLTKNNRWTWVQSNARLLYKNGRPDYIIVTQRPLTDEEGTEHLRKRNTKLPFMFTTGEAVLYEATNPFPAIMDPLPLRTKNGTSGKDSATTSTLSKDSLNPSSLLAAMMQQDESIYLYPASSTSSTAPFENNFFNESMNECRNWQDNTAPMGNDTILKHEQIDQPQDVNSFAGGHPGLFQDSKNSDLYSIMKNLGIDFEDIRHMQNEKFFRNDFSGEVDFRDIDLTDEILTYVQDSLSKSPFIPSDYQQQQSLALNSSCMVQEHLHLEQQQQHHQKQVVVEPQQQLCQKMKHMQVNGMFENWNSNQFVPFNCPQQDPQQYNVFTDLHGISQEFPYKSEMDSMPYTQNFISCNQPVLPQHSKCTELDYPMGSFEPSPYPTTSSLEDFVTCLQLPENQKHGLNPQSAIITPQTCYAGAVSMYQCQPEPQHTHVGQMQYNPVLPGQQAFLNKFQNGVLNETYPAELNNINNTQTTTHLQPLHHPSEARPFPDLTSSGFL
The settings on record: cited from earlier work.

For a further data set, the system named is UV-induced erythema. The experiment in a line: In vivo photoprotection proof of concept: UVB irradiation of treated skin sites, erythema assessment. Details: species or system human. The settings on record: one Skin Type IV subject. The text has this:
The Malassezin 1% formulation used in this study contained the following ingredients: Water (aqua)—65.939%; Dimethyl isosorbide—20.000%; Olive Oil Glycereth-8 Esters—3.000%; Glycerin—2.991%; Coconut Alkanes—2.700%; Hydroxyethyl Acrylate/Sodium Acryloyldimethyl Taurate Copolymer—1.700%; Malassezin—1.000%; Pentylene Glycol—1.000%; Phenoxyethanol—0.640%; Coco-Caprylate/Caprate—0.300%; Caprylyl Glycol—0.200%; Chlorphenesin—0.160%; Sorbitan Isostearate—0.140%; Tocopherol—0.100%; Polysorbate 60-0.080%; and Disodium EDTA—0.050%.
A Skin Type IV […] was included in this Proof of Concept study.
A template of 6 squares was placed on the lower left back (1.5 cm×1.5 cm) of the test subject.
Twenty-four hours after irradiation, the subject returned for MED assessment.
A second right lower square was treated twice daily from day 4 to day 7, and a third medial square for one application on day 7. The product vehicle was applied for 7 days twice daily on the left back. The subject returned to the research center for irradiation on day 7. Each test site was irradiated with 120 mJ of UVB exposure. The subject returned in 24 hours for assessment of phototoxicity/photoprotection.
The subject continued the experiment, receiving Malassezin 1% for a total of 14 days. […]

The conditions of data set [2]: cited from earlier work; for sun protection factor (SPF): cream.
Data set [3] concerns Candida albicans and staphylococci. The settings on record: cited from earlier work.

Where two headings read alike, the source gives them in different places.

Take `O=C1Nc2ccccc2/C1=C1/Nc2ccccc2C1=O` [Indirubin]: in data set [1], the AhR agonist activity result was “known agonist”.
For `O=Cc1c(Cc2c[nH]c3ccccc23)[nH]c2ccccc12` [Malassezin, 2-(1H-indol-3-ylmethyl)-1H-indole-3-carbaldehyde], the “UV-protective properties (conclusion of study)” value with UV-induced erythema is given as “UV-protective properties”. Moreover, the AhR agonist activity entry in data set [1] was “known agonist”.
With `O=C(c1c[nH]c2ccccc12)c1nccc2c1[nH]c1ccccc12` [Pityriacitrin], the “sun protection factor (SPF)” value in data set [2] (pityriacitrin concentration 1.25%) is on record as 1.4; in data set [2] (pityriacitrin concentration 2.5%), 1.5; in data set [2] (pityriacitrin concentration 5%), 1.7. In data set [2] (in vitro and in vivo test methods in humans), the “UV protective effect overall” value is recorded as “very weak”. The “UV-protective effect on microflora” value in data set [3] (Candida albicans and staphylococci) is given as “UV-protective effect”. Further, in data set [3] (ranges tested), the toxicity to microflora result was “no toxicity”.
